Molecular target: 72 kDa type IV collagenase (Homo sapiens, UniProt P08253)
Test: Inhibition of MMPs
From the text: However, it should be noted that excessive inhibition of MMP activity may not be desirable therapeutically because a minimal, or basal, level of MMPs may be necessary for optimal defense of the host.

Chain of 72 kDa type IV collagenase (P08253 whole entry): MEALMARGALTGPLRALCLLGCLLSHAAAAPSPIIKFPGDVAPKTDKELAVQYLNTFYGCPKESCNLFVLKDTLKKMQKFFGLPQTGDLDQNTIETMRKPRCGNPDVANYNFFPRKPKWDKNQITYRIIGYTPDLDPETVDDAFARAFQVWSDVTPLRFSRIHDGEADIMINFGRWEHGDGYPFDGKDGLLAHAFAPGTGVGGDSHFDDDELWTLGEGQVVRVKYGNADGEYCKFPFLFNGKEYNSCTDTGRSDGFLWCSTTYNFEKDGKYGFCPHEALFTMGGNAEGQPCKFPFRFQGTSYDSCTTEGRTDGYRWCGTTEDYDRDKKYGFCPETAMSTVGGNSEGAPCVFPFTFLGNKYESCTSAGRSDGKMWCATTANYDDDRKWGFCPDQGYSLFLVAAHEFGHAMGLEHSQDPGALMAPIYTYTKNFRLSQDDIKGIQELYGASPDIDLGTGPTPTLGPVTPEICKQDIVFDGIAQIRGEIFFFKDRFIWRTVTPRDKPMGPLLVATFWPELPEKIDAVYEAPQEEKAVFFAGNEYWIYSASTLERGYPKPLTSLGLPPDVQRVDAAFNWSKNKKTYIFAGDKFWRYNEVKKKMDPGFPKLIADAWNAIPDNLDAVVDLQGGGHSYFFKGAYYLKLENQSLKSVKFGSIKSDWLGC

IC50: 85 µM
SMILES: COc1cc(/C=C/C(=O)C(C(=O)/C=C/c2ccc(O)c(CO)c2)C(=O)Nc2ccccc2)ccc1O (stereo unspecified) [US10669227, Compound 6]
